Patent US10271552B2, “Heterocyclic compounds as pesticides” (Bayer CropScience Aktiengesellschaft, priority 2015, dated 2019)

Tests used:
Type in all cases: in vivo
Meloidogyne incognita = Meloidogyne incognita test; conditions: 20 ppm; eggs and larvae, salad seeds in sand; after 14 days
Method: Meloidogyne incognita—Test
Solvent: 125.0 parts by weight of acetone
To produce a suitable preparation of active compound, 1 part by weight of active compound is mixed with the stated amount of solvent, and the concentrate is diluted with water to the desired concentration.
Vessels are filled with sand, a solution of the active ingredient, a suspension containing eggs and larvae of the southern root-knot nematode (Meloidogyne incognita) and salad seeds. The salad seeds germinate and the seedlings grow. Galls develop in the roots.
After 14 days the nematicidal activity is determined on the basis of the percentage of gall formation. 100% means no galls were found and 0% means the number of galls found on the roots of the treated plants was equal to that in untreated control plants.

Haemonchus contortus = Haemonchus contortus test; conditions: 20 ppm; larvae; after 5 days
Method: Haemonchus contortus—Test
(§1) Solvent: dimethyl sulfoxide
To produce a suitable preparation of active compound, 10 mg of active compound are dissolved in 0.5 ml solvent, and the concentrate is diluted with “Ringer's solution” to the desired concentration.
Approximately 40 larvae of the red stomach worm (Haemonchus contortus) are transferred into a test tube containing compound solution.
After 5 days the percentage of larval mortality is recorded. 100% efficacy means all larvae are killed, 0% efficacy means no larvae are killed.

Boophilus microplus = Boophilus microplus injection test; conditions: 20 μg/animal injected; adult engorged female ticks; after 7 days
Method: Boophilus microplus—Injection Test
as §1
To produce a suitable preparation of active compound, 10 mg of active compound are dissolved in 0.5 ml solvent, and the concentrate is diluted with solvent to the desired concentration.
Five adult engorged female ticks (Boophilus microplus) are injected with 1 μl compound solution into the abdomen. The ticks are transferred into replica plates and incubated in a climate chamber.
After 7 days egg deposition of fertile eggs is monitored. Eggs where fertility is not visible are stored in a climate chamber till hatching after about 42 days. An efficacy of 100% means all eggs are infertile; 0% means all eggs are fertile.

Ctenocephalides felis [1] = assay: Ctenocephalides felis in-vitro contact test, adult cat flea; conditions: 5 μg/cm^2 (=500 g/ha), after 48 hours
Method: Ctenocephalides felis—In-Vitro Contact Tests Adult Cat Flea
9 mg compound is solved in 1 ml acetone and diluted with acetone to the desired concentration. 250 μl of the test solution is filled in 25 ml glass test tubes and homogeneously distributed on the inner walls by rotation and tilting on a shaking device (2 h at 30 rpm). With a compound concentration of 900 ppm, an inner surface of 44.7 cm^2 and a homogeneous distribution, a dose of 5 μg/cm^2 is achieved.
After the solvent has evaporated, each test tube is filled with 5-10 adult cat fleas (Ctenocephalides felis), closed with a perforated lid and incubated in a lying position at room temperature and relative humidity. After 48 hours efficacy is determined. The fleas are patted on the ground of the tubes and are incubated on a heating plate at 45-50° C. for at most 5 minutes. Immotile or uncoordinated moving fleas, which are not able to escape the heat by climbing upwards, are marked as dead or moribund.
An efficacy of 100% means all fleas are dead or moribund; 0% means no fleas are dead or moribund.

Phaedon cochleariae = Phaedon cochleariae spray test; conditions: foliar, 168 h, Chinese cabbage leaf disks, larvae, after 7 days
Method: Phaedon cochleariae—Spray Test
(§2) Solvent: 78.0 parts by weight of acetone • • 1.5 parts by weight of dimethylformamide
(§3) Emulsifier: alkylarylpolyglycol ether
(§4) To produce a suitable preparation of active compound, 1 part by weight of active compound is mixed with the stated amount of solvents and is diluted with water, containing an emulsifier concentration of 1000 ppm, to the desired concentration. Further test concentrations are prepared by dilution with emulsifier containing water.
Chinese cabbage (Brassica pekinensis) leaf disks are sprayed with a preparation of the active ingredient of the desired concentration. Once dry, the leaf disks are infested with mustard beetle larvae (Phaedon cochleariae).
After 7 days mortality in % is determined. 100% means all beetle larvae have been killed and 0% means none of the beetle larvae have been killed.

Tetranychus urticae = Tetranychus urticae spray test OP-resistant; conditions: foliar, 144 h, French bean leaf disks, all instars, after 6 days
Method: Tetranychus urticae—Spray Test OP-Resistant
(§5) Solvent: 78.0 parts by weight acetone • 1.5 parts by weight dimethylformamide
as §3, §4
French bean (Phaseolus vulgaris) leaf disks infected with all instars of the two spotted spidermite (Tetranychus urticae), are sprayed with a preparation of the active ingredient of the desired concentration.
After 6 days mortality in % is determined. 100% means all spider mites have been killed and 0% means none of the spider mites have been killed.

Lucilia cuprina = assay: whole plant or invertebrate; conditions: 48 h
Method: as §1
10 mg active compound are dissolved in 0.5 ml Dimethylsulfoxid. Serial dilutions are made to obtain the desired rates.
Approximately 20 1st instar larvae of the Australian sheep blowfly (Lucilia cuprina) are transferred into a test tube containing minced horse meat and compound solution of the desired concentration.
After 2 days mortality in % is determined. 100% means all the larvae have been killed; 0% means none of the larvae have been killed.

Nilaparvata lugens = Nilaparvata lugens spray test (solvent 52.5 acetone / 7 dimethylformamide); conditions: 96 h, rice plants, larvae, after 4 days
Method: Nilaparvata lugens—Spray Test
(§6) Solvent: 52.5 parts by weight of acetone • 7 parts by weight of dimethylformamide
(§7) Emulsifier: alkylaryl polyglycolether
as §4, with “water. Ammonium salt and/or penetration enhancer in a dosage of 1000 ppm are added to the desired concentration if necessary.” for “water.”
Rice plants (Oryza sativa) are treated by being sprayed with the desired concentration of the active compound and are infested with larvae of the brown planthopper (Nilaparvata lugens).
After 4 days mortality in % is determined. 100% means all planthoppers have been killed and 0% means none of the planthoppers have been killed.

Myzus persicae = Myzus persicae spray test; conditions: foliar, Chinese cabbage leaf disks, all instars, after 5-6 days
Method: Myzus persicae—Spray Test
as §5, §3, §4
Chinese cabbage (Brassica pekinensis) leaf disks infected with all instars of the green peach aphid (Myzus persicae), are sprayed with a preparation of the active ingredient of the desired concentration.
After 5-6 days mortality in % is determined. 100% means all aphids have been killed and 0% means none of the aphids have been killed.

Diabrotica balteata = Diabrotica balteata spray test; conditions: 160 μg/well; germinated wheat seeds, larvae; after 7 days
Method: Diabrotica Balteata—Spray Test
as §2, §3
as §4, with “solvent,” for “solvents”, “and the concentrate” for “and”
Soaked wheat seeds (Triticum aestivum) are placed in a multiple well plate filled with agar and some water and are incubated for 1 day to germinate (5 seeds per well). The germinated wheat seeds are sprayed with a test solution containing the desired concentration of the active ingredient. Afterwards each unit is infected with 10-20 larvae of the banded cucumber beetle (Diabrotica balteata).
After 7 days efficacy in % is determined. 100% means all the seedlings have grown up like in the untreated, uninfected control; 0% means none of the seedlings have grown.

Ctenocephalides felis [2] = assay: whole plant or invertebrate; conditions: po, 48 h
Method: Ctenocephalides felis—Oral Test
as §1
To produce a suitable preparation of active compound, 10 mg of active compound are dissolved in 0.5 ml solvent, and the concentrate is diluted with cattle blood to the desired concentration.
Approximately 20 adult unfed cat fleas (Ctenocephalides felis) are placed in flea chambers. The blood chamber, sealed with parafilm on the bottom, are filled with cattle blood supplied with compound solution and placed on the gauze covered top of the flea chamber, so that the fleas are able to suck the blood. The blood chamber is heated to 37° C. whereas the flea chamber is kept at room temperature.
After 2 days mortality in % is determined. 100% means all the fleas have been killed; 0% means none of the fleas have been killed.

Nezara viridula [3] = assay: Nezara viridula spray test (solvent 78.0 acetone / 1.5 dimethylformamide); conditions: 96 h, barley plants, larvae, after 4 days
Method: (§8) Nezara viridula—Spray Test
as §2, §3
as §4, with “solvent,” for “solvents”, “and the concentrate” for “and”
(§9) Barley plants (Hordeum vulgare) infested with larvae of the southern green stink bug (Nezara viridula) are sprayed with a test solution containing the desired concentration of the active ingredient.
(§10) After 4 days mortality in % is determined. 100% means all the stink bugs have been killed; 0% means none of the stink bugs have been killed.

Nezara viridula [4] = assay: Nezara viridula spray test (solvent 52.5 acetone / 7 dimethylformamide); conditions: 96 h, barley plants, larvae, after 4 days
Method: as §8, §6, §7
To produce a suitable preparation of active compound, 1 part by weight of active compound is mixed with the stated amount of solvent, and the concentrate is diluted with water, containing an emulsifier concentration of 1000 ppm, to the desired concentration. Ammonium salt and/or penetration enhancer in a dosage of 1000 ppm are added to the desired concentration if necessary.
as §9, §10

Q: What does the source list for `O=C(Nc1nc(-c2c(F)cccc2F)ns1)c1ccccc1F` [Compound I-1-2]?
A: nematicidal activity (gall formation) (Meloidogyne incognita): 100%; larval mortality (efficacy) (Haemonchus contortus): 100%

Q: `O=C(Nc1nc(-c2c(F)cccc2F)ns1)c1ccccc1C(F)(F)F` [Compound I-1-4] was tested. Which “nematicidal activity (gall formation)” value (Meloidogyne incognita) did it give?
A: 90%

Q: And the “efficacy (infertile eggs)” value (Boophilus microplus)?
A: 100%

Q: And the “efficacy (fleas dead or moribund)” value (Ctenocephalides felis [1])?
A: 100%

Q: `O=C(Nc1nc(-c2c(F)cccc2F)ns1)c1ccccc1Br` [Compound I-1-5, 2-Bromo-N-[3-(2,6-difluorophenyl)-1,2,4-thiadiazol-5-yl]benzamide] was tested. Which “nematicidal activity (gall formation)” value (Meloidogyne incognita) did it give?
A: 90%

Q: And the “efficacy (infertile eggs)” value (Boophilus microplus)?
A: 100%

Q: And the mortality at 500 g/ha (Phaedon cochleariae)?
A: ≥ 80%

Q: And the mortality at 500 g/ha (Tetranychus urticae)?
A: ≥ 70%

Q: And the mortality at 100 ppm (Lucilia cuprina)?
A: 70 to 100%

Q: `O=C(Nc1nc(-c2c(F)cccc2F)ns1)c1cccnc1C(F)(F)F` [Compound I-1-6, N-[3-(2,6-difluorophenyl)-1,2,4-thiadiazol-5-yl]-2-(trifluoromethyl)nicotinamide] was tested. Which mortality at 500 g/ha (Nilaparvata lugens) did it give?
A: ≥ 80%

Q: And the mortality at 500 g/ha (Myzus persicae)?
A: ≥ 70%

Q: What about the “nematicidal activity (gall formation)” value (Meloidogyne incognita) of the same compound?
A: 100%

Q: What about the “efficacy (seedling growth)” value (Diabrotica balteata) of the same compound?
A: 80%

Q: What about the “efficacy (infertile eggs)” value (Boophilus microplus) of the same compound?
A: 100%

Q: And the mortality at 100 ppm (Lucilia cuprina)?
A: 100%

Q: And the “efficacy (fleas dead or moribund)” value (Ctenocephalides felis [1])?
A: 100%

Q: And the mortality at 100 ppm (Ctenocephalides felis [2])?
A: 100%

Q: With `O=C(Nc1nc(-c2c(F)cccc2F)ns1)c1nccnc1C(F)(F)F` [Compound I-1-7] as the compound, how does the “efficacy (seedling growth)” value (Diabrotica balteata) read?
A: 100%

Q: And the “efficacy (infertile eggs)” value (Boophilus microplus)?
A: 100%

Q: And the “efficacy (fleas dead or moribund)” value (Ctenocephalides felis [1])?
A: 100%

Q: For `O=C(Nc1nc(-c2ccccc2Cl)ns1)c1ccccc1Br` [Compound I-1-21, 2-Bromo-N-[3-(2-chlorophenyl)-1,2,4-thiadiazol-5-yl]benzamide], which mortality at 500 g/ha (Phaedon cochleariae) is on record?
A: ≥ 80%

Q: What about the mortality at 500 g/ha (Nezara viridula [3]) of the same compound?
A: ≥ 90%

Q: Which results are given for `O=C(Nc1nc(-c2c(F)cccc2F)ns1)c1cccnc1Cl` [Compound I-1-29, 2-Chloro-N-[3-(2,6-difluorophenyl)-1,2,4-thiadiazol-5-yl]nicotinamide]?
A: mortality at 500 g/ha (Nezara viridula [4]): ≥ 90%; nematicidal activity (gall formation) (Meloidogyne incognita): 100%; efficacy (seedling growth) (Diabrotica balteata): 80%; mortality at 500 g/ha (Nezara viridula [3]): ≥ 90%

Q: What does the source list for `O=C(Nc1nc(-c2c(F)cccc2F)ns1)c1cccnc1C(F)(F)F.[Na+]` [Compound I-1-30, Sodium [3-(2,6-difluorophenyl)-1,2,4-thiadiazol-5-yl]{[2-(trifluoromethyl)pyridin-3-yl]carbonyl}azanide]?
A: mortality at 500 g/ha (Nezara viridula [4]): ≥ 90%; nematicidal activity (gall formation) (Meloidogyne incognita): 100%; efficacy (infertile eggs) (Boophilus microplus): 100%; mortality at 500 g/ha (Phaedon cochleariae): ≥ 80%; mortality at 500 g/ha (Tetranychus urticae): ≥ 70%; efficacy (fleas dead or moribund) (Ctenocephalides felis [1]): 90%

Q: With `CCN(C(=O)c1cccnc1C(F)(F)F)c1nc(-c2c(F)cccc2F)ns1` [Compound I-1-34, N-[3-(2,6-Difluorophenyl)-1,2,4-thiadiazol-5-yl]-N-ethyl-2-(trifluoromethyl)nicotinamide] as the compound, how does the mortality at 500 g/ha (Tetranychus urticae) read?
A: ≥ 70%

Q: `O=C(Nc1nc(-c2ccccc2Cl)ns1)c1cccnc1C(F)(F)F` [Compound I-1-43, N-[3-(2-chlorophenyl)-1,2,4-thiadiazol-5-yl]-2-(trifluoromethyl)nicotinamide] was tested. Which mortality at 500 g/ha (Nezara viridula [4]) did it give?
A: ≥ 90%

Q: What about the mortality at 500 g/ha (Phaedon cochleariae) of the same compound?
A: ≥ 80%

Q: What about the mortality at 500 g/ha (Tetranychus urticae) of the same compound?
A: ≥ 70%

Q: And the mortality at 500 g/ha (Nezara viridula [3])?
A: ≥ 90%

Q: For `O=C(Nc1nc(-c2ccc(F)cc2F)ns1)c1cccnc1C(F)(F)F` [Compound I-1-56], which “larval mortality (efficacy)” value (Haemonchus contortus) is on record?
A: 80%

Q: Which results are given for `O=C(Nc1nc(-c2c(C(F)(F)F)cccc2C(F)(F)F)ns1)c1cccnc1C(F)(F)F` [Compound I-1-65, N-{3-[2,6-Bis(trifluoromethyl)phenyl]-1,2,4-thiadiazol-5-yl}-2-(trifluoromethyl)nicotinamide]?
A: mortality at 500 g/ha (Nezara viridula [4]): ≥ 90%; mortality at 500 g/ha (Nilaparvata lugens): ≥ 80%

Q: With `O=C(Nc1nc(-c2ncc(C(F)(F)F)cc2Cl)ns1)c1cccnc1C(F)(F)F` [Compound I-2-3, N-{3-[3-Chloro-5-(trifluoromethyl)pyridin-2-yl]-1,2,4-thiadiazol-5-yl}-2-(trifluoromethyl)nicotinamide] as the compound, how does the mortality at 500 g/ha (Myzus persicae) read?
A: ≥ 70%

Q: And the mortality at 500 g/ha (Phaedon cochleariae)?
A: ≥ 80%

Q: Which results are given for `O=C(Nc1nc(-c2ncccc2Cl)ns1)c1ccccc1Cl` [Compound I-2-6, 2-Chloro-N-[3-(3-chloropyridin-2-yl)-1,2,4-thiadiazol-5-yl]benzamide]?
A: mortality at 500 g/ha (Nilaparvata lugens): ≥ 80%; mortality at 500 g/ha (Phaedon cochleariae): ≥ 80%; mortality at 500 g/ha (Tetranychus urticae): ≥ 70%
